# Measured values from US20100215716A1, “COMPOSITIONS AND METHODS FOR COATING ORTHOPEDIC IMPLANTS” (Biomet Manufacturing Corp., priority 2009, published 2010).
# Test: Solubility of antibiotics and polymer in organic solvents
smiles,measurement,value
CC[C@H]1OC(=O)[C@H](C)[C@@H](O[C@H]2C[C@@](C)(OC)[C@@H](O)[C@H](C)O2)[C@H](C)[C@@H](O[C@@H]2O[C@H](C)C[C@H](N(C)C)[C@H]2O)[C@](C)(O)C[C@@H](C)C(=O)[C@H](C)[C@@H](O)[C@]1(C)O [erythromycin],"solubility in ethyl acetate, dichloromethane, and tetrahydrofuran",dissolved
